The numbers were not newly measured in patent US20250114388A1, “ACTIVE PHARMACEUTICAL INGREDIENT COMPOSITIONS AND PREPARATION AND USES THEREOF” (Dr. Anti Fungus, LLC, priority 2023, published 2025), which cites them from elsewhere.

*1 amine or outer side, *2 acyl side, *3 side chain or, on linkers, in order; H or OH if unused. Where a SMILES comes first, the peptide text is derived from it. Bridges are numbered along the chain shown (N, C = ends). [ ]: non-standard residue; d: D form. The star is where a group is joined. pTerphenylCO(4''-OnC5H11) = CCCCCOc1ccc(-c2ccc(-c3ccc(C(=O)*)cc3)cc2)cc1; Orn(4R-OH,5R-OH) = O=C([C@H](C[C@@H](O)[C@@H](O)N[*:3])N[*:1])[*:2]; hTyr(3S-OH,4S-OH) = N[C@H](C(=O)O)[C@H](O)[C@@H](O)c1ccc(O)cc1; Pro(3S-OH,4S-Me) = C[C@H]1CN[C@H](C(=O)O)[C@H]1O; Hyp = O=C(O)[C@@H]1C[C@@H](O)CN1

For `CCC(C)n1ncn(-c2ccc(N3CCN(c4ccc(OCC5COC(Cn6cncn6)(c6ccc(Cl)cc6Cl)O5)cc4)CC3)cc2)c1=O` (centres unmarked) [itraconazole], the solubility in water result was “insoluble”. As to `CN(C/C=C/C#CC(C)(C)C)Cc1cccc2ccccc12` [terbinafine], the solubility in water result was “sparingly soluble”. For the compound `C[C@@H]1[C@H](O)[C@@H](C)/C=C/C=C/CC/C=C/C=C/C=C/C=C/C(O[C@H]2O[C@H](C)[C@@H](O)[C@H](N)[C@@H]2O)CC2O[C@](O)(CC(O)C(O)CCC(O)CC(O)CC(O)CC(=O)O[C@H]1C)CC(O)C2C(=O)O` (some centres unmarked) [nystatin], the solubility in water entry is on record as “sparingly soluble”. With `Clc1ccccc1C(c1ccccc1)(c1ccccc1)n1ccnc1` [clotrimazole], the solubility in water entry is reported as “insoluble”. Take `OC(Cn1cncn1)(Cn1cncn1)c1ccc(F)cc1F` [fluconazole]: the solubility in water entry was “sparingly soluble”.

On to `Clc1ccc(COC(Cn2ccnc2)c2ccc(Cl)cc2Cl)cc1` (centres unmarked) [econazole], for which the solubility in water result is reported as “insoluble”.

In the case of `C[C@@H]1[C@H](O)[C@@H](C)/C=C/C=C/C=C/C=C/C=C/C=C/C=C/[C@H](O[C@@H]2O[C@H](C)[C@@H](O)[C@H](N)[C@@H]2O)C[C@@H]2O[C@](O)(C[C@@H](O)C[C@@H](O)[C@H](O)CC[C@@H](O)C[C@@H](O)CC(=O)O[C@H]1C)C[C@H](O)[C@H]2C(=O)O` [amphotericin B], the solubility in water entry is recorded as “insoluble”. Consider `Clc1ccc(COC(Cn2ccnc2)c2ccc(Cl)cc2Cl)c(Cl)c1` (centres unmarked) [miconazole], for which the solubility in water entry was “insoluble”.

In the case of `CC(=O)N1CCN(c2ccc(OCC3COC(Cn4ccnc4)(c4ccc(Cl)cc4Cl)O3)cc2)CC1` (centres unmarked) [ketoconazole], the solubility in water result was “insoluble”. Turning to `CCCCCOc1ccc(-c2ccc(-c3ccc(C(=O)N[C@H]4C[C@@H](O)[C@@H](O)NC(=O)[C@@H]5[C@@H](O)[C@@H](C)CN5C(=O)[C@H]([C@@H](C)O)NC(=O)[C@H]([C@H](O)[C@@H](O)c5ccc(O)cc5)NC(=O)[C@@H]5C[C@@H](O)CN5C(=O)[C@H]([C@@H](C)O)NC4=O)cc3)cc2)cc1` [anidulafungine] ({pTerphenylCO(4''-OnC5H11)}-[Orn(4R-OH,5R-OH)]T[Hyp][hTyr(3S-OH,4S-OH)]T[Pro(3S-OH,4S-Me)]; lactam 1-C), the solubility in water result is recorded as “insoluble”. `Cc1cccc(N(C)C(=S)Oc2ccc3ccccc3c2)c1` [tolnaftate]: the solubility in water entry is “insoluble”.
